Results reported in ChEMBL document CHEMBL4312023, “Design of novel monoamine oxidase-B inhibitors based on piperine scaffold: Structure-activity-toxicity, drug-likeness and efflux transport studies” (Eur J Med Chem, 2020).

Experiments:
[1] = Chromatographic hydrophobicity index of compound at 250 uM at pH 7.4 by HPLC analysis; format: ADME; conditions: pH 7.4, 250 µM
[2] = Retention time of compound at pH 7.4 by LC-UV analysis; format: physicochemical; conditions: buffer
[3] = target: T1, Amine oxidase [flavin-containing] B (Homo sapiens, UniProt P27338); experiment: Inhibition of human microsomal MAO-B expressed in baculovirus infected BTI-TN-5B1-4 cells assessed as reduction in 4-hydroxyquinoline formation at 10 uM using kynuramine as substrate preincubated with substrate for 10 mins followed by enzyme addition by spectrophotometric analysis; conditions: BTI-TN-5B1-4, human
T1 sequence (P27338 whole entry): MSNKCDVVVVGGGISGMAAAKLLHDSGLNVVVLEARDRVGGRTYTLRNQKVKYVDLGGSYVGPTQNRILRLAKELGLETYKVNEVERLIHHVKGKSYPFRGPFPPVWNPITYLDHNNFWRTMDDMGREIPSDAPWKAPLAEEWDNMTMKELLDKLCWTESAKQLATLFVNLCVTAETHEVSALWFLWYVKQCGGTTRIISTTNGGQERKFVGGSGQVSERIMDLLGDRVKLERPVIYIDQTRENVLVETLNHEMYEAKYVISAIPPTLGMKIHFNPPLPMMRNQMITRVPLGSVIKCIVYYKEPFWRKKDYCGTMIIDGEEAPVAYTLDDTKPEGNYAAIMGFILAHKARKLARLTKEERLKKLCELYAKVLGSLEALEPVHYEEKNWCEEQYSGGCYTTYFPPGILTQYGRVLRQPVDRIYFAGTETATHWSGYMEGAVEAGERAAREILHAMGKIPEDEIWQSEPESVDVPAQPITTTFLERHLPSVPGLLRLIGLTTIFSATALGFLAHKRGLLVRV

[4] = target: T2, Amine oxidase [flavin-containing] A (Homo sapiens, UniProt P21397); conditions: BTI-TN-5B1-4, human, read-out: INH
T2 sequence (P21397 whole entry): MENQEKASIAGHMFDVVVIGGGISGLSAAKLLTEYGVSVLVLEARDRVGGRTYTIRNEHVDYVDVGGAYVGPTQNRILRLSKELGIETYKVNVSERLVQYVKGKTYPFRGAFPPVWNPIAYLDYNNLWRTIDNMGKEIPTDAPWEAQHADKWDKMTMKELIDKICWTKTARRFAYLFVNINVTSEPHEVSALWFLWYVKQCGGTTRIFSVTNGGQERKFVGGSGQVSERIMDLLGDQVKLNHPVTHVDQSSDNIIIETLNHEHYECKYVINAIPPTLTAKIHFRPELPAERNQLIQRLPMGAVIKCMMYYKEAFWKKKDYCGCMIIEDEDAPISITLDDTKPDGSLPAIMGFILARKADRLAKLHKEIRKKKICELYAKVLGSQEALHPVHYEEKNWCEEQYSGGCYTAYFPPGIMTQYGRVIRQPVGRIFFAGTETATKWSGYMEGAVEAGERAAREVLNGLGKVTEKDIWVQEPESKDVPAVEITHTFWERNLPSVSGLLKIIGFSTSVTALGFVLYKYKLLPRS
Description: Inhibition of human microsomal MAO-A expressed in baculovirus infected BTI-TN-5B1-4 cells assessed as reduction in 4-hydroxyquinoline formation at 10 uM using kynuramine as substrate preincubated with substrate for 10 mins followed by enzyme inhibition by spectrophotometric analysis

[5] = Solubility of compound in sodium phosphate buffer at >10 uM at pH 7.4; format: physicochemical
[6] = Cytotoxicity against human SH-SY5Y cells assessed as lysosomal activity by measuring neutral red uptake at 50 uM incubated for 24 hrs followed by incubation with neutral red solution for 2 hrs by microplate reader analysis (reference value: >85%); format: cell-based; conditions: read-out: Activity
[7] = organism: Homo sapiens; experiment: Selectivity index, ratio of IC50 for human microsomal MAO-A expressed in baculovirus infected […] cells to IC50 for human microsomal MAO-B expressed in baculovirus infected […] cells using kynuramine as substrate
[8] = target: T1, Amine oxidase [flavin-containing] B; experiment: biochemical; format: cell-based, BTI-TN-5B1-4
Description: Inhibition of human microsomal MAO-B expressed in baculovirus infected BTI-TN-5B1-4 cells assessed as reduction in 4-hydroxyquinoline formation using kynuramine as substrate preincubated with substrate for 10 mins followed by enzyme addition by spectrophotometric analysis

[9] = Cytotoxicity against human SH-SY5Y cells assessed as cellular metabolic activity by measuring resazurin reduction at 50 uM incubated for 24 hrs followed by incubation with resazurin for 2 hrs by fluorescence based assay (reference value: >85 %); format: ADME, cell-based; conditions: read-out: Activity
[10] = Cytotoxicity against human SH-SY5Y cells assessed as cellular metabolic activity by measuring resazurin reduction at 10 to 50 uM incubated for 24 hrs followed by incubation with resazurin for 2 hrs by fluorescence based assay (reference value: >85%); format: ADME, cell-based; conditions: SH-SY5Y cells, read-out: Activity
[11] = target: T1, Amine oxidase [flavin-containing] B; experiment: Competitive inhibition of human microsomal MAO-B expressed in baculovirus infected BTI-TN-5B1-4 cells assessed as increase in substrate Km using kynuramine as substrate preincubated with substrate at varying concentrations for 10 mins followed by enzyme addition by Lineweaver-Burk plot analysis
[12] = target: T3, ATP-dependent translocase ABCB1 (Homo sapiens, UniProt P08183); experiment: (§1) Inhibition of P-gp in human Caco2 cells assessed as decrease in Rho123 efflux by measuring decrease in ratio between fluorescence intensity of Zos-inhibited Rho123 accumulation and fluorescence intensity of non-inhibited Rho123 accumulation at 10 uM using Rho123 as substrate preincubated for 30 mins in presence of 5 uM P-gp inhibitor, Zos followed by incubation with Rhodamine 123 for 90 mins by fluorescence spectroscopy analysis; format: cell-based; conditions: 1.5 h
[13] = Cytotoxicity against human Caco2 cells assessed as cellular metabolic activity by measuring resazurin reduction at 10 to 50 uM incubated for 24 hrs followed by incubation with resazurin for 1 hr by fluorescence based assay (reference value: >85%); format: ADME, cell-based; conditions: Caco-2 cells, read-out: Activity
[14] = Cytotoxicity against human SH-SY5Y cells assessed as lysosomal activity by measuring neutral red uptake at 10 to 50 uM incubated for 24 hrs followed by incubation with neutral red solution for 2 hrs by microplate reader analysis (reference value: >85%); format: cell-based; conditions: SH-SY5Y cells, read-out: Activity
[15] = target: T2, Amine oxidase [flavin-containing] A; experiment: biochemical
Description: Inhibition of human microsomal MAO-A expressed in baculovirus infected BTI-TN-5B1-4 cells assessed as reduction in 4-hydroxyquinoline formation using kynuramine as substrate preincubated with substrate for 10 mins followed by enzyme addition by spectrophotometric analysis

[16] = Cytotoxicity against human Caco2 cells assessed as lysosomal activity by measuring neutral red uptake at 10 to 50 uM incubated for 24 hrs followed by incubation with neutral red solution for 1 hr by microplate reader analysis (reference value: >85%); format: cell-based; conditions: Caco-2 cells, read-out: Activity
[17] = target: T3, ATP-dependent translocase ABCB1; experiment: as §1, with “Induction of” for “Inhibition of”, “Rho123 intracellular accumulation” for “Rho123 efflux”, “measuring increase” for “measuring decrease”; format: cell-based; conditions: 1.5 h
[18] = Chromatographic hydrophobicity index, log D of compound at 250 uM at pH 7.4 by HPLC analysis; format: physicochemical; conditions: buffer
[19] = target: T1, Amine oxidase [flavin-containing] B; experiment: Competitive inhibition of human microsomal MAO-B expressed in baculovirus infected BTI-TN-5B1-4 cells assessed as constant Vmax using kynuramine as substrate preincubated with substrate at varying concentrations for 10 mins followed by enzyme addition by Lineweaver-Burk plot analysis
[20] = target: T1, Amine oxidase [flavin-containing] B; experiment: Competitive inhibition of human microsomal MAO-B expressed in baculovirus infected BTI-TN-5B1-4 cells assessed as inhibition constant using kynuramine as substrate preincubated with substrate at varying concentrations for 10 mins followed by enzyme addition by Lineweaver-Burk plot analysis

T3 sequence (P08183 whole entry): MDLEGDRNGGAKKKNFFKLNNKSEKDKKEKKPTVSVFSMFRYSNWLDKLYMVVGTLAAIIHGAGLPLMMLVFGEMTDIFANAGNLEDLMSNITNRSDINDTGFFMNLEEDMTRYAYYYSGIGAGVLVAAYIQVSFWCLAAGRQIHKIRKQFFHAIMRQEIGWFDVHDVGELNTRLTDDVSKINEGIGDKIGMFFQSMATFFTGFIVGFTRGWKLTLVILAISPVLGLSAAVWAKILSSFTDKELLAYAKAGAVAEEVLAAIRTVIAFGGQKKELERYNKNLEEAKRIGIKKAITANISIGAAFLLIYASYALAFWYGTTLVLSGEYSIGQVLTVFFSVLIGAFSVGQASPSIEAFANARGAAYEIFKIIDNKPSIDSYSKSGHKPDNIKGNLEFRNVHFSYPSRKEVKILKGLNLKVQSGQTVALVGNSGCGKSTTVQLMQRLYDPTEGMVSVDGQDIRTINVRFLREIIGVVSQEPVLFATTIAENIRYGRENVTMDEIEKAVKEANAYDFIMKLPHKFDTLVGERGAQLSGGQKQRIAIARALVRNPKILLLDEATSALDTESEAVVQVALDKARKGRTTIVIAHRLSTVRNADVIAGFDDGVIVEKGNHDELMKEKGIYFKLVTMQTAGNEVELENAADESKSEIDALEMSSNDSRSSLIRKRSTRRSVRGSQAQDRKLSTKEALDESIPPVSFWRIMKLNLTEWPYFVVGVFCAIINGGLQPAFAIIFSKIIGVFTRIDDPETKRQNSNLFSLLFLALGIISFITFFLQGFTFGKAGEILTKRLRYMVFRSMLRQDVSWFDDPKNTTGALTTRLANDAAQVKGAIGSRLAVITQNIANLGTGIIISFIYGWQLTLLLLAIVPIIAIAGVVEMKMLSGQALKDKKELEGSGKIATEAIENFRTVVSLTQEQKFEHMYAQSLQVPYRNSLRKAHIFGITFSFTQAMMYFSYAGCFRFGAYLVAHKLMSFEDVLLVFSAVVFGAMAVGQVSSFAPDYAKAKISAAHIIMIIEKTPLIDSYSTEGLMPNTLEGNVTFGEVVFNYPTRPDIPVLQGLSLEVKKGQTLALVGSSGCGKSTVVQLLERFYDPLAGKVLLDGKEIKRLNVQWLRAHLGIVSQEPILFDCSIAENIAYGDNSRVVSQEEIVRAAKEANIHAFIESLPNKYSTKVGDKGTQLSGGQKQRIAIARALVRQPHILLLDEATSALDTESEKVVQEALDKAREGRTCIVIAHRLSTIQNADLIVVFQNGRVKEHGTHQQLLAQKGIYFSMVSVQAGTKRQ

Structure (SMILES) | CHI [1] | Retention_time [2] [min] | inhibition at 10 µM [3] [%] | inhibition at 10 µM [4] [%] | other results
CCC(=O)c1ccccc1 [PROPIOPHENONE] | 78.41 | 10.63 |  |  | 
c1ccc2[nH]cnc2c1 [BENZIMIDAZOLE] | 30.71 | 8 |  |  | 
CC(=O)Nc1ccc(O)cc1 [ACETAMINOPHEN] | 20.59 | 7.45 |  |  | 
N#C/C(=C\C=C\c1ccc2c(c1)OCO2)C(=O)Nc1ccccc1 |  |  | < 50 | < 50 | 
O=C(/C=C/C=C/c1ccc2c(c1)OCO2)Oc1ccccc1 |  |  |  |  | solubility [5]: Insoluble; viability at 24 h, 50 µM [6]: 59.4%; Ratio IC50 [7]: > 64; IC50 [8]: 156 nM; viability at 24 h, 50 µM [9]: 79.7%
O=C(/C=C/C=C/c1ccc2c(c1)OCO2)OCCc1ccccc1 |  |  |  | < 50 | Ratio IC50 [7]: > 22; IC50 [8]: 448 nM
COc1cc2c(c(OC)c1OC)-c1ccc(OC)c(=O)cc1[C@@H](NC(C)=O)CC2 [COLCHICINE] | 44.32 | 8.35 |  |  | 
O=C(/C=C/C=C/c1ccc2c(c1)OCO2)NCCc1ccccc1 |  |  | < 50 | < 50 | 
Cn1c(=O)c2c(ncn2C)n(C)c1=O [CAFFEINE] | 24.12 | 7.56 |  |  | 
O=C(/C=C/C=C/c1ccc2c(c1)OCO2)Nc1ccccc1 |  |  | < 50 | < 50 | 
O=C(/C=C/C=C/c1ccc2c(c1)OCO2)NCc1ccccc1 |  |  | < 50 | < 50 | 
CCCC(=O)c1ccccc1 [BUTYROPHENONE] | 88.49 | 11.32 |  |  | 
O=C(/C=C/C=C/c1ccc2c(c1)OCO2)OCc1ccccc1 | 102.14 | 12.46 |  |  | viability at 24 h, up to 50 µM [10]: > 85%; inhibition (INH) [11]: Active; inhibition (INH) [12]: Not Active; viability at 24 h, up to 50 µM [13]: > 85%; viability at 24 h [14]: > 85%; Ratio IC50 [7]: 25; IC50 [15]: 4240 nM; IC50 [8]: 167 nM; viability at 24 h [16]: > 85%; Activity [17]: Not Active; chromatographic logD at 250 µM [18]: 3.9; inhibition (INH) [19]: Active; Ki [20]: 75 nM
O=C(O)/C=C/C=C/c1ccc2c(c1)OCO2 [PIPERIC ACID] |  |  | < 50 | < 50 | 
